In patent US12583858B2 (Genentech, Inc., priority 2015, dated 2026):

Biological target: T1, TDO2 (Homo sapiens, UniProt P48775)
T1 construct: decreased levels of NFK in SW48 cells (high TDO expressing cells)
Assay: TDO2 cell assay (NFK GreenScreen, SW48 cells)
Format: cell-based
Details: SW48 cells (high TDO expressing), 200 uM tryptophan, 24 hours; Table 3; read-out: TDO2 Cell Fluor EC50
Protocol: The NFK GreenScreen™ (NTRC, Netherlands) uses a specific chemical probe that binds to N-Formylkynurenine (NFK), a product of tryptophan catabolism facilitated by IDO or TDO and causes fluorescence at 510 nm when excited at 410 nm. […] The assay is multiplexed with Cell Titer-Glo® (Promega) to determine if compounds are cytotoxic. […] Cells are counted on a Vi-Cell (Beckman Coulter). SW48 cells are diluted to 1×10^6 cells/ml in assay media. A172 cells are diluted to 0.24×10^6 cells/ml in assay media. […] 5 ul of assay media containing 1.2 mM tryptophan are added to the SW48 cells for a final concentration of 200 uM tryptophan in each well. 5 ul of assay media containing 600 uM tryptophan and 600 ng/ml IFNγ are added to the A172 cells for a final concentration of 100 uM tryptophan and 100 ng/ml IFNγ in each well. The final DMSO concentration is 0.5%. Cell plates are placed at room temperature in a closed TC hood with the blower off to allow cells to settle for approximately 30 min. Plates are then moved to an incubator set at 37° C., 5% CO2 for 24 hours. After the 24 hour compound incubation, 8 ul of NFK green reagent is added to each well with a Multidrop™ Combi dispenser (Thermo Scientific). Plates are sealed and incubated at 37° C., 5% CO2 for 5 hours, then read on a PHERAstar® (BMG labtech). Data are analyzed by normalizing to DMSO and high inhibitor controls. After the plates have been read for NFK green, 25 ul of Cell Titer-Glo® (Promega) are added to each well, incubated for 15 minutes at room temperature, and read on the Envision (Perkin Elmer). Cell Titer-Glo data are analyzed by normalizing to the DMSO controls. Four-parameter curve fitting is used and EC50 data are reported.

T1 sequence (P48775 whole entry): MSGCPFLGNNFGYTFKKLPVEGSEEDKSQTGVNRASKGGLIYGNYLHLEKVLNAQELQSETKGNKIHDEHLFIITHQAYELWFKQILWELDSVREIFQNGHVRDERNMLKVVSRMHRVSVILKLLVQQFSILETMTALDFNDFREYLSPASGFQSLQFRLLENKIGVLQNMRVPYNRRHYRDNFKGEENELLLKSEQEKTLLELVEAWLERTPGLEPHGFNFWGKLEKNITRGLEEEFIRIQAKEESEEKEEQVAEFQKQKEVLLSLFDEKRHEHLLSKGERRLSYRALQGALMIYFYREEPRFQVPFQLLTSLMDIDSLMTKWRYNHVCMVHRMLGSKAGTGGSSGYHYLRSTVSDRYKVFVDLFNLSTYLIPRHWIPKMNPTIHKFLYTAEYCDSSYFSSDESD

| Compound | EC50 [µM] |
| --- | --- |
| OC1CCCOCC1C1c2ccccc2-c2cncn21 (single isomer, unassigned) [Example 86g] | 0.84 |
| OC1CC2(COC2)C1C1c2ccccc2-c2cncn21 (single isomer, unassigned) [Example 87a] | 18 |
| OC1CC2(COC2)C1C1c2ccccc2-c2cncn21 (single isomer, unassigned) [Example 87c] | 6 |
| OC1CC2(COC2)C1C1c2ccccc2-c2cncn21 (single isomer, unassigned) [Example 87d] | > 25 |
| OC1CC2(COC2)C1C1c2ccccc2-c2cncn21 (single isomer, unassigned) [Example 87e] | 14 |
| OC1CC2(COC2)C1C1c2ccccc2-c2cncn21 (single isomer, unassigned) [Example 87f] | 17 |
| OC1CC2(COC2)C1C1c2ccccc2-c2cncn21 (single isomer, unassigned) [Example 87g] | 0.24 |
| OC1CC2(COC2)C1C1c2ccccc2-c2cncn21 (single isomer, unassigned) [Example 87h] | 11 |
| OC1c2nccn2CCC1C1c2ccccc2-c2cncn21 (single isomer, unassigned) [Example 88a] | > 25 |
| OC1c2nccn2CCC1C1c2ccccc2-c2cncn21 (single isomer, unassigned) [Example 88b] | > 25 |
| OC1c2nccn2CCC1C1c2ccccc2-c2cncn21 (single isomer, unassigned) [Example 88c] | > 25 |
| OC1c2nccn2CCC1C1c2ccccc2-c2cncn21 (single isomer, unassigned) [Example 88d] | 21 |
| OC1c2nccn2CCC1C1c2ccccc2-c2cncn21 (single isomer, unassigned) [Example 88e] | > 25 |
| OC1c2nccn2CCC1C1c2ccccc2-c2cncn21 (single isomer, unassigned) [Example 88f] | 5.8 |
| OC1c2nccn2CCC1C1c2ccccc2-c2cncn21 (single isomer, unassigned) [Example 88g] | 0.73 |
| OC1c2nccn2CCC1C1c2ccccc2-c2cncn21 (single isomer, unassigned) [Example 88h] | > 25 |
| CC(C)S(=O)(=O)N1CCC(C2c3ccccc3-c3cncn32)C(O)C1 (single isomer, unassigned) [Example 89a] | 14 |
| CC(C)S(=O)(=O)N1CCC(C2c3ccccc3-c3cncn32)C(O)C1 (single isomer, unassigned) [Example 89b] | > 25 |
| CC1(C)CCCC(C)(C2c3ccccc3-c3cncn32)C1O (single isomer, unassigned) [Example 90a] | > 25 |
| CC1(C)CCCC(C)(C2c3ccccc3-c3cncn32)C1O (single isomer, unassigned) [Example 90b] | > 25 |
| CC1(C)CCCC(C)(C2c3ccccc3-c3cncn32)C1O (single isomer, unassigned) [Example 90c] | 0.057 |
| CC1(C)CCCC(C)(C2c3ccccc3-c3cncn32)C1O (single isomer, unassigned) [Example 90d] | 9.4 |
| CC1(C)CCCC(C)(C2c3ccccc3-c3cncn32)C1O (single isomer, unassigned) [Example 90f] | 0.41 |

| Compound | EC50 [µM] |
| --- | --- |
| CS(=O)(=O)c1ccc2c(c1)OCC(C1c3ccccc3-c3cncn31)C2O (single isomer, unassigned) [Example 91a] | 2.8 |
| CS(=O)(=O)c1ccc2c(c1)OCC(C1c3ccccc3-c3cncn31)C2O (single isomer, unassigned) [Example 91b] | > 25 |
| CS(=O)(=O)c1ccc2c(c1)OCC(C1c3ccccc3-c3cncn31)C2O (single isomer, unassigned) [Example 91c] | > 25 |
| CS(=O)(=O)c1ccc2c(c1)OCC(C1c3ccccc3-c3cncn31)C2O (single isomer, unassigned) [Example 91d] | 0.36 |
| CS(=O)(=O)c1ccc2c(c1)OCC(C1c3ccccc3-c3cncn31)C2O (single isomer, unassigned) [Example 91e] | 6.1 |
| CS(=O)(=O)c1ccc2c(c1)OCC(C1c3ccccc3-c3cncn31)C2O (single isomer, unassigned) [Example 91f] | 0.81 |
| CS(=O)(=O)c1ccc2c(c1)OCC(C1c3ccccc3-c3cncn31)C2O (single isomer, unassigned) [Example 91g] | 2.3 |
| CS(=O)(=O)c1ccc2c(c1)OCC(C1c3ccccc3-c3cncn31)C2O (single isomer, unassigned) [Example 91h] | > 25 |
| CS(=O)(=O)N1CCC(O)C(C2c3ccccc3-c3cncn32)CC1 (single isomer, unassigned) [Example 92a] | 1.2 |
| CS(=O)(=O)N1CCC(O)C(C2c3ccccc3-c3cncn32)CC1 (single isomer, unassigned) [Example 92b] | 8.6 |
| CS(=O)(=O)N1CCC(O)C(C2c3ccccc3-c3cncn32)CC1 (single isomer, unassigned) [Example 92c] | 18 |
| CS(=O)(=O)N1CCC(O)C(C2c3ccccc3-c3cncn32)CC1 (single isomer, unassigned) [Example 92d] | 0.24 |
| Cn1ncc2c1CCC(C1c3ccccc3-c3cncn31)C2O (single isomer, unassigned) [Example 93b] | 5.5 |
| Cn1ncc2c1CCC(C1c3ccccc3-c3cncn31)C2O (single isomer, unassigned) [Example 93c] | 1.4 |
| Cn1ncc2c1CCC(C1c3ccccc3-c3cncn31)C2O (single isomer, unassigned) [Example 93d] | 1.4 |
| Cn1ncc2c1CCC(C1c3ccccc3-c3cncn31)C2O (single isomer, unassigned) [Example 93e] | 4.3 |
| Cn1ncc2c1CCC(C1c3ccccc3-c3cncn31)C2O (single isomer, unassigned) [Example 93f] | 0.81 |
| Cn1ncc2c1CCC(C1c3ccccc3-c3cncn31)C2O (single isomer, unassigned) [Example 93g] | > 25 |
| OC1c2cncnc2CCC1C1c2ccccc2-c2cncn21 (single isomer, unassigned) [Example 94a] | 2.3 |
| OC1c2cncnc2CCC1C1c2ccccc2-c2cncn21 (single isomer, unassigned) [Example 94b] | 3.1 |
| OC1c2cncnc2CCC1C1c2ccccc2-c2cncn21 (single isomer, unassigned) [Example 94d] | 0.13 |
| OC1c2cncnc2CCC1C1c2ccccc2-c2cncn21 (single isomer, unassigned) [Example 94e] | 2 |
| OC1c2cncnc2CCC1C1c2ccccc2-c2cncn21 (single isomer, unassigned) [Example 94f] | 12 |

| Compound | EC50 [µM] |
| --- | --- |
| OC1c2cncnc2CCC1C1c2ccccc2-c2cncn21 (single isomer, unassigned) [Example 94g] | 14 |
| OC1c2cncnc2CCC1C1c2ccccc2-c2cncn21 (single isomer, unassigned) [Example 94h] | > 25 |
| OC1c2cc(CF)nn2CCC1C1c2ccccc2-c2cncn21 (single isomer, unassigned) [Example 95a] | > 25 |
| OC1c2cc(CF)nn2CCC1C1c2ccccc2-c2cncn21 (single isomer, unassigned) [Example 95b] | 0.24 |
| CN(C)C(=O)c1ccc2c(c1)CCC(C1c3ccccc3-c3cncn31)C2O (single isomer, unassigned) [Example 98a] | 0.073 |
| CN(C)C(=O)c1ccc2c(c1)CCC(C1c3ccccc3-c3cncn31)C2O (single isomer, unassigned) [Example 98b] | 8.7 |
| CN(C)C(=O)c1ccc2c(c1)CCC(C1c3ccccc3-c3cncn31)C2O (single isomer, unassigned) [Example 98c] | 0.18 |
| CN(C)C(=O)c1ccc2c(c1)CCC(C1c3ccccc3-c3cncn31)C2O (single isomer, unassigned) [Example 98d] | 9.5 |
| CN(C)C(=O)c1ccc2c(c1)CCC(C1c3ccccc3-c3cncn31)C2O (single isomer, unassigned) [Example 98e] | 22 |
| CN(C)C(=O)c1ccc2c(c1)CCC(C1c3ccccc3-c3cncn31)C2O (single isomer, unassigned) [Example 98f] | 2.5 |
| CN(C)C(=O)c1ccc2c(c1)CCC(C1c3ccccc3-c3cncn31)C2O (single isomer, unassigned) [Example 98g] | 0.86 |
| CN(C)C(=O)c1ccc2c(c1)CCC(C1c3ccccc3-c3cncn31)C2O (single isomer, unassigned) [Example 98h] | 9.8 |
| OC1COCCC1C1c2cccc(F)c2-c2cncn21 (single isomer, unassigned) [Example 99a] | > 25 |
| OC1COCCC1C1c2cccc(F)c2-c2cncn21 (single isomer, unassigned) [Example 99b] | > 25 |
| OC1COCCC1C1c2cccc(F)c2-c2cncn21 (single isomer, unassigned) [Example 99c] | > 25 |
| OC1COCCC1C1c2cccc(F)c2-c2cncn21 (single isomer, unassigned) [Example 99d] | 0.73 |
| NS(=O)(=O)c1ccc2c(c1)CCC(C1c3ccccc3-c3cncn31)C2O (single isomer, unassigned) [Example 100a] | 0.12 |
| NS(=O)(=O)c1ccc2c(c1)CCC(C1c3ccccc3-c3cncn31)C2O (single isomer, unassigned) [Example 100b] | 1.3 |
| NS(=O)(=O)c1ccc2c(c1)CCC(C1c3ccccc3-c3cncn31)C2O (single isomer, unassigned) [Example 100c] | 7.4 |
| NS(=O)(=O)c1ccc2c(c1)CCC(C1c3ccccc3-c3cncn31)C2O (single isomer, unassigned) [Example 100d] | > 25 |
| NS(=O)(=O)c1ccc2c(c1)CCC(C1c3ccccc3-c3cncn31)C2O (single isomer, unassigned) [Example 100e] | 1.3 |
| NS(=O)(=O)c1ccc2c(c1)CCC(C1c3ccccc3-c3cncn31)C2O (single isomer, unassigned) [Example 100f] | 15 |
| NS(=O)(=O)c1ccc2c(c1)CCC(C1c3ccccc3-c3cncn31)C2O (single isomer, unassigned) [Example 100h] | 4.8 |
